This is an account of results in EP2265632B1, “CD4-RELATED POLYPEPTIDES AND METHODS OF USE” (priority 2008, dated 2009).

Data set [1] relates to recombinant gp120BaL. The data set is described as follows: Electrophoretic mobility shift assay (EMSA) with [14C]-acetylated peptides, scintillation counting of excised gp120. Format: binding, HIV-1. The note with it: for peptide associated with excised gp120: 5 µM gp120BaL, 500 µM radiolabeled peptide, no reducing agent. The method, then: Peptide N-terminal [^14C]-Acetylation. Hel-S, Hel-Cs and Hel-C were radioactively labeled by N-terminal acetylation according to the method of Fraenkel-Conrat and Colloms with modifications. Briefly, peptides were reconstituted in an ice cold saturated solution of sodium acetate (> 3 M) to a concentration of 5 mM. [^14C]-Acetic anhydride (specific activity 116 mCi/mmol, Amersham Biosciences, UK) was then added to 100 µl of the reconstituted peptide solution in two 1 µl installments over 15 minutes, and the labeling reactions were incubated for 2 hours on ice. After addition of the final acetic anhydride installment, the reaction concentrations of both peptide and acetic anhydride were 5 mM, and the samples contained 1% toluene and 500 nCi/µl of [^14C]. An equal volume (100 µl) of ice cold PBS (pH 7.4) was then added to each reaction. For buffer exchange and removal of unincorporated radiolabel, the [^14C]-labeled peptides were purified chromatographically using Sephadex G-10 spin columns (Sigma, UK) equilibrated in PBS (pH 7.4). The concentration of the purified labeled peptides was determined by measuring A280, and the labeling efficiencies were analysed by discontinuous PAGE and fluorescence autoradiography, as well as by liquid scintillation counting using Packard Tri-Carb 2200 Liquid Scintillation Analyzer. Labeled peptides were stored in 50 µl aliquots at -80°C.
Electrophoretic Mobility Shift Assay (EMSA). Peptide-gp120 binding reactions were set up in 50 µl and contained 5 µM of pure recombinant gp120BaL and 500 µM of radio labeled Hel-S, Hel-Cs or Hel-C in PBS (pH 7.4). Reactions were incubated at 25°C for 3 hours and then stopped by the addition of an equal volume (50 µl) of either reducing agent-free loading buffer (0.1 M Tris, 20% glycerol, 8% SDS and 0.02% Coomassie blue G-250) or the same buffer containing 1, 10 or 100 mM of DTT. The samples were incubated at 80°C for 3 minutes before loading on a 20 × 20 cm 6 - 20% gradient Tris/Tricine polyacrylamide gel, and were resolved at a constant 40 V for 16 hours at room temperature. After electrophoresis, the gel was rinsed thoroughly with H2O and then stained lightly by incubation in a solution containing 10% methanol, 10% acetic acid and 0.02% Coomassie Blue R-250 for 10 minutes with gentle shaking. The gel was rinsed with H20, and bands corresponding to gp120 were excised using a gel punch and placed in 1.5 ml microcentrifuge tubes. The gp120-containing polyacrylamide slices were solubilized by incubation at 37°C for 16 hours in 400 µl of a solution containing 30% H2O2 and 0.03% ammonium hydroxide. The dissolved polyacrylamide samples were added to 2 ml of Aquasol-2 scintillation cocktail (Perkin Elmer, USA), and radioactive emissions expressed as counts per minute (cpm) measured by scintillation counting.
Hel-C Binds gp120 through disulfide linkage on gp120. We adopted two independent approaches to evaluate the potential of Hel-C to bind recombinant gp120. First, we used an electrophoretic mobility shift assay (EMSA) to detect gp120-bound peptides following resolution of peptide/protein mixtures on denaturing gradient polyacrylamide gels. This method also enabled us to determine whether the mechanism of binding could be related to the establishment of disulphide bonds between the peptides and target gp120, by measuring the proportion of bound peptide in response to increasing doses of DTT. For detection, we decided to incorporate as small a label as possible into the peptide, so that steric effects of the labeling procedure would be minimal (such as would be the case with larger fluorescent/antigenic tags), and that the peptide would be able to adopt a secondary structure as close as possible to the R59-Q64 α-helix chain in CD4. We therefore labeled Hel-C and the control peptides Hel-S and Hel-Cs with [^14C]-acetic anhydride, which incorporated a single [^14C]-acetyl group on the peptide N-termini. […]
In general terms: A gel shift assay detects complexes by their altered migration in electrophoresis.

Data set [2] is described as follows: Peptide analyses: oxidation state by discontinuous Tris/Tricine PAGE with densitometry. Type of data set: physicochemical. Particulars: for peptide existing as monomers: densitometric analysis; for peptide existing as monomers / oxidation state of the peptide: no reducing agent; for oxidation state of the peptide: reconstituted in PBS (pH 7.4), Tris/Tricine PAGE. The method, then:
Peptide analyses. Synthetic 7-mer peptides Hel-S (RRSLWDQ, SEQ ID NO:10), Hel-Cs (DLRQCWR, SEQ ID NO:27) and Hel-C (RRCLWDQ, SEQ ID NO:2) were analysed by discontinuous PAGE according to the method of Schagger and von Zagau with modifications. Briefly, 2.5 µg of each lyophilized peptide reconstituted in pure H2O was mixed with a reducing agent-free loading buffer (0.1 M Tris, 20% glycerol, 8% SDS and 0.02% Coomassie blue G-250), incubated at 80°C for 3 minutes and loaded onto a 17.5% Tris/Tricine gel. Samples were resolved at 20 mAper gel until stacked (1-2 hours) and at 35 mA for 16 hours through the resolving gel. The gel was fixed by incubation in a 5% glutaraldehyde solution for 1 hour and then stained with Coomassie Blue-R250. Peptide monomer/dimer ratios were calculated by densitometry using Quantity One® software (BioRad, Hercules, CA (USA)). To evaluate the redox states of cysteine-containing peptides further, reduced Glutathione (GSH) (Sigma, UK), β-mercaptoethanol and dithiothreitol (DTT) were included in the sample loading buffer at concentrations ranging from 0 to 400 mM, and the samples were resolved and analysed as described above.
Peptide Analyses. We analysed the oxidation states of the synthetic peptides Hel-S, Hel-Cs and Hel-C following reconstitution in PBS (pH 7.4) by high resolution Tris/Tricine PAGE (resolving buffer pH = 8.0). As expected, in aqueous solution at close to neutral pH, the wild-type CD4-mimetic peptide Hel-S consisted of a pure monomer of molecular weight equal to approximately 1 kDa (predicted Mw = 976 g/mol). […] The latter are evident as bands of approximately 2 kDa, which presumably result from intermolecular disulfide bond formation. […] We then treated Hel-C with the thiol-containing reducing compounds β-mercaptoethanol (β-ME) and 1,4-dithiothreitol (DTT) to determine relative effects on cysteine oxidation in this peptide.

For data set [3], the system named is recombinant gp120BaL. The data set is described as follows: Surface plasmon resonance (Biacore 3000) on immobilized gp120. Format: binding, HIV-1. How it is done: Surface Plasmon Resonance. All surface Plasmon resonance (SPR) experiments were performed on a BIA3000 optical biosensor (Biacore Inc., Uppsala, Sweden). Recombinant gp120BaL was immobilized on CM5 sensor chips by amine coupling according to the manufacturer's instructions. Briefly, a solution of 0.2 M EDC and 0.05 M NHS was used to activate carboxyl groups on the sensor surface at a flow rate of 5 µL/min for 10 minutes. Recombinant gp120BaL, dissolved in 100 mM sodium acetate buffer (pH 5.5) to a final concentration of 0.05 µM, was passed over the sensor chip surface at a flow rate of 5 µL/min until an immobilization level of 5000 RU was achieved. Excess carboxyl groups were capped by injection of 1 M ethanolamine (pH 8.0) at a flow rate of 5 µL/min for 5 minutes. Unbound ligand was removed by injecting 10 mM glycine (pH 2.5) at a flow rate of 5 µL/min for 2 minutes. In all experiments, the neighbouring flow cell was treated as mentioned above without the immobilization of gp120BaL, and this served as a reference surface. Prior to all experiments, the functionalities of the gp120 surfaces were tested by binding sCD4 at 500 nM in HEPES-buffered saline supplemented with 0.15 M NaCl (HBS-N, pH7.4). Analyte solutions were prepared in HBS-N at least 30 minutes prior to injection. All binding experiments were performed in duplicate at 25°C. For peptide binding analyses, increasing concentrations of peptide (from 0 to 500 µM) were passed over the surface at a flow rate of 5 µL/min, with a 5 minute association phase and a 6 minute dissociation phase. Surfaces were regenerated with a 20 mM sodium hydroxide (NaOH) solution between consecutive peptide analyses. The integrity of the surfaces was tested after each regeneration for sCD4 binding. Buffer injections and control surface binding were subtracted for all reported data.
Recombinant gp120BaL was immobilized on CM5 sensorchips and exposed to increasing concentrations of Hel-S, Hel-Cs or Hel-C.
The reasons for the slight difference are likely to be related to the different target gp120s used in these studies. […] Our data thus fit to a direct binding model consistent with 1:1 stoichiometry, and closely match previously published results.

In another data set the test system is gp120BaL. The data set is described as follows: Epitope occlusion assay (ELISA): competition with anti-gp120 MAbs for immobilized gp120. Type of data set: binding, HIV-1. Particulars: for effect on binding of MAb 654-30D to gp120: CD4bs-directed MAb 654-30D 0.2 nM; for effect on binding of MAb 654-30D to gp120 / effect on binding of MAb b12 to gp120 / effect on binding of MAb 2G12 to gp120 / effect on binding of MAb B4a1 to gp120: 2dCD4 0 to 1 µM or peptides 0 to 1 mM; for effect on binding of MAb b12 to gp120: CD4bs-directed MAb b12 0.2 nM; for effect on binding of MAb 2G12 to gp120: CD4bs-independent MAb 2G12 0.2 nM; for effect on binding of MAb B4a1 to gp120: CD4bs-independent MAb F425 B4a1 (V3 loop) 0.2 nM.

Regarding “RRCLWDQ [Hel-C, linear CD4-mimetic 7-mer peptide, R58 to Q64 of mature CD4 with S60C mutation]”, in the data set on recombinant gp120BaL [1], the “peptide associated with excised gp120” value is recorded as “significant quantity”. Besides, the “amount of bound peptide relative to the amount bound in the absence of any reducing compound” value in the data set on recombinant gp120BaL [1] (100 mM DTT) turned out to be 10%. The “mode of binding to gp120 (EMSA)” value in the data set on recombinant gp120BaL [1] (C14-radioactively labeled peptide, denaturing gels, absence and presence of reducing agents) is listed as “binds covalently”. Further, the “amount of Hel-C bound to gp120” value in the data set with recombinant gp120BaL [1] (increasing amounts of DTT added) was “decreased”. Further, the “proportion of Hel-C monomer” value in data set [2] (DTT at 10 mM) came out at 50%. Besides, the “effect of DTT on cysteine oxidation” value in data set [2] (DTT at 200 mM) is reported as “completely abolished the ability of the peptide to oxidize”. For the same substance, in data set [2], the “peptide existing as monomers” value is recorded as “less than 10%”; the “oxidation state of the peptide” value is “mixture of monomers and dimers”. Moreover, the “effect of β-ME on cysteine oxidation” value in data set [2] (β-ME at 200 mM) was “unable to monomerize the peptide completely”. In the data set with recombinant gp120BaL [3] (both monomeric and trimeric gp120 proteins), the “mode of binding to gp120 (SPR binding kinetics)” value is recorded as “binds covalently”. Besides, the “binding to recombinant gp120” value in the data set on recombinant gp120BaL [3] (conclusion from EMSA and SPR collectively) is “able to bind recombinant gp120”. Moreover, in the data set with gp120BaL, the “effect on binding of MAb 654-30D to gp120” value was “dose-dependent inhibitory effect”, the “effect on binding of MAb b12 to gp120” value was “dose-dependent inhibitory effect”, the “effect on binding of MAb 2G12 to gp120” value is “did not compete” and the “effect on binding of MAb B4a1 to gp120” value is on record as “did not compete”. Also, the “effect on binding of MAb b12 to gp120” value in the data set on gp120BaL (listed as S85C) is reported as “appear to block”. Besides, the “relief of Hel-C-mediated inhibition of b12-gp120 binding” value in the data set with gp120BaL (peptide pre-treated with 20 mM DTT) is given as “complete”. Further, the “relief of Hel-C-mediated inhibition of b12-gp120 binding” value with gp120BaL (peptide pre-treated with 20 mM β-mercaptoethanol) is “only partially rescued b12 binding”. Moreover, the “effect of reducing compounds on the amount of 2G12 bound in the presence or absence of peptide” value in the data set with gp120BaL (peptide pre-treated with 20 mM β-mercaptoethanol or DTT) is on record as “no effect”.

As to RRSLWDQ [Hel-S], in the data set with recombinant gp120BaL [1], the “peptide associated with excised gp120” value was “no detectable”. Moreover, the “oxidation state of the peptide” value in data set [2] is “pure monomer”. For the same substance, in the data set on gp120BaL, the “effect on binding of MAb 654-30D to gp120” value was “did not compete”, the “effect on binding of MAb b12 to gp120” value is listed as “did not compete”, the “effect on binding of MAb 2G12 to gp120” value is given as “did not compete” and the “effect on binding of MAb B4a1 to gp120” value is “did not compete”. In addition, the “effect on binding of MAb b12 to gp120” value in the data set with gp120BaL (listed as native) was “does not”.

Take DLRQCWR [Hel-Cs]: the “peptide associated with excised gp120” value in the data set on recombinant gp120BaL [1] was “small amount”. Also, in data set [2], the “peptide existing as monomers” value is “less than 10%”; the “oxidation state of the peptide” value is “mixture of monomers and dimers”. Further, in the data set on gp120BaL, the “effect on binding of MAb 654-30D to gp120” value was “did not compete”, the “effect on binding of MAb b12 to gp120” value is “did not compete”, the “effect on binding of MAb 2G12 to gp120” value is given as “did not compete” and the “effect on binding of MAb B4a1 to gp120” value is “did not compete”. In addition, the “effect on binding of MAb b12 to gp120” value in the data set with gp120BaL (listed as scrambled) was “does not”.

As to RINNIPWSEAMM [12p1, reference compound], in the data set with recombinant gp120BaL [3] (5000 RU gp120BaL surface), the “calculated Rmax” value is reported as “approximately 67 RU”. In addition, the amount bound entry with recombinant gp120BaL [3] (just over 100 µM peptide, 5000 RU gp120 BaL surface) is on record as “approximately 45 RU”.
